pIC50: −log10 of the molar value.
Experiments:
GSPT1 protein = molecular target: T1, GSPT1 protein (Homo sapiens, UniProt P15170+Q96SW2); assay: GSPT1 degradation assay (western blot) in HL-60 cells; assay type: cell-based; conditions: GSPT1 protein level, 2h incubation, western blot normalized to beta-Actin; for inhibition at 0.1 µM: 0.1 μM compound; for inhibition at 1 µM: 1 μM compound
T1 construct: endogenous in cells; host or cells: HL-60 cells
Experimental: HL-60 cells (4×10^^6 cells/well) were seeded in 6-well culture plate (Costar, 3516) and treated with a variety of concentrations of test compound. After 2h incubation, cells were collected and lysed. The protein concentration was determined by BCA protein assay kit from Thermo (23227). The GSPT1 protein level was determined by western blots, using GSPT1 polyclonal antibody. Proteins were loaded into each well of the pre-casting gels and subjected to electrophoretic separation by SDS-PAGE. The protein resolved by SDS-PAGE were transferred to PVDF, blocked by 5% skim milk and probed with anti-GSPT1 antibody (Proteintech, 10763-1-AP) or anti-β-actin antibody (CST, 3700S), using following standard western blotting procedure. Blots intensities were quantified using ImageJ software and the intensity of GSPT1 bands were normalized to beta-Actin bands, respectively. The GSPT1 degradation results were then calculated. Reported compound C84971 (see WO2021126974A1 and WO2021126973A1) was used as a reference.

HL-60 cells = assay: Cell viability assay (CellTiter-Glo); assay type: cell-based; conditions: Homo sapiens, 72 h incubation, 6-point serial dilution
Experimental: HL-60 cells were seeded at a density of 7000 cells per well in 96-well culture plates (Corning 3903) with IMDM and treated with test compounds following a 6-point serial dilution. RPMI 1640 (0.1% DMSO) was used as control for each well. After 72 h incubation, cell viability was determined using the CellTiter-Glo assay kit (Promega, G9242) according to the manufacturer's instructions. The dose-response curves were determined and IC50 values were calculated using the GraphPad Prism software following a nonlinear regression method.

T1 sequence (P15170 whole entry): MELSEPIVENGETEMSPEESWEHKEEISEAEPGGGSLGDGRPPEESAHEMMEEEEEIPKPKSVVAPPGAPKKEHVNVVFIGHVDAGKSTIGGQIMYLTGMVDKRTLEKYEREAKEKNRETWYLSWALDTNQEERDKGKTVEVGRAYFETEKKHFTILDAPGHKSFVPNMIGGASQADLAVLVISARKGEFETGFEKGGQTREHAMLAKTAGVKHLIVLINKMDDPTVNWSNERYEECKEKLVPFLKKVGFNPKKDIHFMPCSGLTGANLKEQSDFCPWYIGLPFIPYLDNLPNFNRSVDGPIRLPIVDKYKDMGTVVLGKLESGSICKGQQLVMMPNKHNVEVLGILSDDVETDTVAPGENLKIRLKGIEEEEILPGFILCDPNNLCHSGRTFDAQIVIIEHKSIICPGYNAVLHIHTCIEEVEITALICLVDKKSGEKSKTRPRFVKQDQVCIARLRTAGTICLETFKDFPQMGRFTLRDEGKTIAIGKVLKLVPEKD
T1 sequence (Q96SW2 whole entry): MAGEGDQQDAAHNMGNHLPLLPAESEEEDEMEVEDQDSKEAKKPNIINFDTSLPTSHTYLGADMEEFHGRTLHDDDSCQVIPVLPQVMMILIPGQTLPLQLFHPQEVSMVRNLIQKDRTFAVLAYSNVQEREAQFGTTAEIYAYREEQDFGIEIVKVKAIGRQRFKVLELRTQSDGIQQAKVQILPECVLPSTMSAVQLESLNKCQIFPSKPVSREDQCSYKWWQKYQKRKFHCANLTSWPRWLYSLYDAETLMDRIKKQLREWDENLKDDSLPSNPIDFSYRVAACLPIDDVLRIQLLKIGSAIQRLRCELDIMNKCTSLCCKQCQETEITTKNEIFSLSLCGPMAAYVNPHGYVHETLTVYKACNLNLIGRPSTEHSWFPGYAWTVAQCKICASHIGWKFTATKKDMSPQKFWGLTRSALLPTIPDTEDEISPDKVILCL
T1 sequence (Q16531 whole entry partner): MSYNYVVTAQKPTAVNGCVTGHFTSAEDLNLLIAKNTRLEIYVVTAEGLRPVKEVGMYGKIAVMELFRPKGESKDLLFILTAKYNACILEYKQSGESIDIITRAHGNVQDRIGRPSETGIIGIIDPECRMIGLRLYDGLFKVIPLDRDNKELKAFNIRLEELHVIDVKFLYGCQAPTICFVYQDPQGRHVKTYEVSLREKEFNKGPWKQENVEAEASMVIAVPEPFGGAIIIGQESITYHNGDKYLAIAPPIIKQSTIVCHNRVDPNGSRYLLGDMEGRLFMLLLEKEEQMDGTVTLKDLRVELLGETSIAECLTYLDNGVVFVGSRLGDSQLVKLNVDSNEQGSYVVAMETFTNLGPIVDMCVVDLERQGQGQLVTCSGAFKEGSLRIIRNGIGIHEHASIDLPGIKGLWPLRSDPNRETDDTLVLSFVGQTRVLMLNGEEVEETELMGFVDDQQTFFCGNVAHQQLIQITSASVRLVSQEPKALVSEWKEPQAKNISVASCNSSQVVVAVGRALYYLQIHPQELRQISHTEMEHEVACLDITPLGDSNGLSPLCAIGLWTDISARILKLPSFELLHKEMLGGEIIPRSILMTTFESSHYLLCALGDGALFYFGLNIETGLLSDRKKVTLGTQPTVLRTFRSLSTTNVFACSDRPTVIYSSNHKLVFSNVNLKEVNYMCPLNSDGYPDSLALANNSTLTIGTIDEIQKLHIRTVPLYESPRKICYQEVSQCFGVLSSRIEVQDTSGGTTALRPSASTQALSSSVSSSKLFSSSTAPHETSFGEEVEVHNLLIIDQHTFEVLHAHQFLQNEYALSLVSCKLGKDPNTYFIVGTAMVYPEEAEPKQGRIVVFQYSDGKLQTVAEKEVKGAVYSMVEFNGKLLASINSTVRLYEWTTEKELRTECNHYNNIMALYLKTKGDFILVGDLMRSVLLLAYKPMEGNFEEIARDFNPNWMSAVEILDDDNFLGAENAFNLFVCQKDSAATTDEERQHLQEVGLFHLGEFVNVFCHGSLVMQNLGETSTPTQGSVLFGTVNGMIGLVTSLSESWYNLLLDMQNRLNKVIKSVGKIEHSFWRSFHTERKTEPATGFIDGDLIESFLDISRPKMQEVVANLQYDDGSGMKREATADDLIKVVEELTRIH

Work on CCc1c[nH]c2ccc(-c3cccc(N4CCCN(CCC5CN(c6ccc7c(c6)C(=O)N(C6CCC(=O)NC6=O)C7=O)C5)C4=O)c3)nc12 (stereo not drawn) [Compound 27, 2-(2,6-dioxopiperidin-3-yl)-5-(3-{2-[3-(3-{3-ethyl-1H-pyrrolo[3,2-b]pyridin-5-yl}phenyl)-2-oxo-1,3-diazinan-1-yl]ethyl}azetidin-1-yl)isoindole-1,3-dione] yielded an inhibition at 0.1 µM (GSPT1 protein) of 45%, an inhibition at 1 µM (GSPT1 protein) of 70% and a pIC50 (HL-60 cells) of 6.40.
O=C1CCC(N2Cc3cc(N4CCC(CN5CCCN(c6ccccc6)C5=O)CC4)ccc3C2=O)C(=O)N1 (stereo not drawn) [Compound 19, 3-(1-oxo-5-(4-((2-oxo-3-phenyltetrahydropyrimidin-1(2H)-yl)methyl)piperidin-1-yl)isoindolin-2-yl)piperidine-2,6-dione] showed an inhibition at 0.1 µM (GSPT1 protein) of 15%, an inhibition at 1 µM (GSPT1 protein) of 38% and a pIC50 (HL-60 cells) of under 6.00.
Work on O=C1CCC(N2C(=O)c3ccc(N4CC(CCN5CCCN(c6cccc(-c7cnccc7Cl)c6)C5=O)C4)cc3C2=O)C(=O)N1 (stereo not drawn) [Compound 8, 5-(3-(2-(3-(3-(4-chloropyridin-3-yl)phenyl)-2-oxotetrahydropyrimidin-1(2H)-yl)ethyl)azetidin-1-yl)-2-(2,6-dioxopiperidin-3-yl)isoindoline-1,3-dione] yielded an inhibition at 0.1 µM (GSPT1 protein) of 70%, an inhibition at 1 µM (GSPT1 protein) of 63% and a pIC50 (HL-60 cells) of 6.71.
Compound CCc1c(N)ccc(-c2cccc(N3CCCN(CC4CCN(c5ccc6c(c5)C(=O)N(C5CCC(=O)NC5=O)C6=O)CC4)C3=O)c2)c1Cl (stereo not drawn) [Compound 29, 5-(4-((3-(4′-amino-2′-chloro-3′-ethyl-[1,1′-biphenyl]-3-yl)-2-oxotetrahydropyrimidin-1(2H)-yl)methyl)piperidin-1-yl)-2-(2,6-dioxopiperidin-3-yl)isoindoline-1,3-dione] has an inhibition at 0.1 µM (GSPT1 protein) of 45%, an inhibition at 1 µM (GSPT1 protein) of 47% and a pIC50 (HL-60 cells) of 6.65.

Reference: patent US20260108521A1, “GSPT1 DEGRADERS, COMPOSITIONS COMPRISING THE DEGRADER, AND METHODS OF USING THE SAME” (BIOFRONT LTD, priority 2022, published 2026)
